One assay deals with GP2D cells. The assay is described as follows: Cell proliferation assay (CellTiter-Glo), K-Ras G12D cells. Format: cell-based. The conditions noted are these: read-out: Inhibition of GP2D Cells (IC50). The essentials: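 CellTiter-Glo luminescence, taken roughly 5 days after dosing, measured growth of G12D-mutant GP2D cells in DMEM/2 mM glutamine/10% FBS. Compound dilution series (e.g., 9 points, 3-fold) added the day after plating. Four-parameter fitting gave IC50.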

The next assay addresses T1, K-Ras G12S (Homo sapiens, UniProt P01116, G12S).
T1 construct: made in house; host or cells: E. coli (e.g., BL21 (DE3))
The assay is described as follows: HTRF assay of the K-Ras / SOS1 interaction. Format: biochemical. The conditions noted are these: IC50 (against K-Ras G12D) to IC50 (against K-Ras G12S). In outline:
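Compounds (duplicates, 10 µM to 0.01 µM) were incubated ≥~10 min with Eu-labelled GST-K-Ras G12S and XL665-labelled His-hSOS1 in HEPES pH 7.4 buffer containing NaCl, DTT, BSA and Igepal. Disruption measured as HTRF emission ratio 665/620 nm, fitted to IC50.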
For orientation: In TR-FRET formats the signal depends on donor and acceptor labels being close together.

The next assay has as its system A549 cells. The assay is described as follows: Cell proliferation assay (CellTiter-Glo), K-Ras G12S cells. Format: cell-based. The conditions noted are these: for IC50: Homo sapiens; for ratio of IC50 against a G12D cell line to IC50 against a G12S cell line: K-Ras G12D cell line such as GP2D relative to K-Ras G12S cell line such as A549, greater than 1, 2, 3, 4, 5, 10, 15 or even greater, 8640 min. The essentials:
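A549 cells (K-Ras G12S) in RPMI-1640 with 10% FBS, seeded in standard or ultra-low-attachment plates and dosed next day with a 10-point 3-fold series. Viability read about 6 days later by CellTiter-Glo luminescence. IC50 from four-parameter fit.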

The mark [1] stands for this setting: A549, A549 cells (K-Ras G12S), bin ≤ 500 nM, read-out: Inhibition of A549 Cells (IC50).
Where [2] appears, read: A549, A549 cells (K-Ras G12S), bin 500 nM to 5 µM, read-out: Inhibition of A549 Cells (IC50).
Setting [3] is: A549, read-out: Inhibition of A549 Cells (IC50).

Where two headings read alike, the source gives them in different places.

T1 sequence (P01116 1-188 isoform P01116-2 G12S): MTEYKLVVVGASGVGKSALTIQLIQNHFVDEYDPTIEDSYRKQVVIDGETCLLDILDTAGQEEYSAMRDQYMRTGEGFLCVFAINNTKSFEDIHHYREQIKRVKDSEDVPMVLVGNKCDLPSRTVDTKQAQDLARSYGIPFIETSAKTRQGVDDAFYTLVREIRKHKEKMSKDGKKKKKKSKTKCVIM

Broadly, the IC50 is the concentration needed to halve the response being measured. With `N#Cc1c(N)sc2c(F)ccc(-c3c(Cl)cc4c(N5CCC6C5CCCN6C(=O)n5cncn5)nc(OC[C@@]56CCCN5C[C@H](F)C6)nc4c3F)c12` (stereo partly drawn) [Compound A152, 4-(4-(4-(1H-1,2,4-triazole-1-carbonyl)octahydro-1H-pyrrolo[3,2-b]pyridin-1-yl)-6-chloro-8-fluoro-2-(((2R,7aS)-2-fluorotetrahydro-1H-pyrrolizin-7a(5H)-yl)methoxy)quinazolin-7-yl)-2-amino-7-fluorobenzo[b]thiophene-3-carbonitrile], the IC50 in the assay with GP2D cells (GP2D cells (K-Ras G12D)) was not above 1000 nM; in the assay on A549 cells (setting [1]) it was not above 500 nM. Further, the “Ratio of IC50 KRAS G12D vs. IC50 KRAS G12S” value on K-Ras G12S is given as “A (A: indicates that the ratio of IC50 against KrasG12D vs. IC50 against KrasG12S is 1-fold or greater)”. Besides, the “ratio of IC50 against a G12D cell line to IC50 against a G12S cell line” value in the assay on A549 cells is “greater than 1”.
For `N#Cc1c(N)sc2c(F)ccc(-c3ncc4c(N5CCCC6(CN(C(=O)n7cncn7)C6)C5)nc(OC[C@@]56CCCN5C[C@H](F)C6)nc4c3F)c12` [Compound A134, 4-(4-(2-(1H-1,2,4-triazole-1-carbonyl)-2,6-diazaspiro[3.5]nonan-6-yl)-8-fluoro-2-(((2R,7aS)-2-fluorotetrahydro-1H-pyrrolizin-7a(5H)-yl)methoxy)pyrido[4,3-d]pyrimidin-7-yl)-2-amino-7-fluorobenzo[b]thiophene-3-carbonitrile], the results for the 50% inhibitory concentration (IC50) in the assay with GP2D cells (GP2D cells (K-Ras G12D)) and in the assay with A549 cells (setting [2]) were 1000 to 10000 nM and 500 to 5000 nM, respectively. On K-Ras G12S, the “Ratio of IC50 KRAS G12D vs. IC50 KRAS G12S” value was “A (A: indicates that the ratio of IC50 against KrasG12D vs. IC50 against KrasG12S is 1-fold or greater)”.
For `Cc1ncn(C(=O)N2CC3CCN(c4nc(OC[C@@]56CCCN5C[C@H](F)C6)nc5c(F)c(-c6ccc(F)c7sc(N)c(C#N)c67)c(Cl)cc45)C3C2)n1` (stereo partly drawn) [Compound A304, 2-amino-4-(6-chloro-8-fluoro-2-(((2R,7aS)-2-fluorotetrahydro-1H-pyrrolizin-7a(5H)-yl)methoxy)-4-(5-(3-methyl-1 H-1,2,4-triazole-1-carbonyl)hexahydropyrrolo[3,4-b]pyrrol-1(2H)-yl)quinazolin-7-yl)-7-fluorobenzo[b]thiophene-3-carbonitrile], the concentration for half-maximal inhibition (IC50) in the assay with GP2D cells (GP2D cells (K-Ras G12D)) was 1000 to 10000 nM; in the assay on A549 cells (setting [1]), not above 500 nM. At K-Ras G12S, the “Ratio of IC50 KRAS G12D vs. IC50 KRAS G12S” value is recorded as “A (A: indicates that the ratio of IC50 against KrasG12D vs. IC50 against KrasG12S is 1-fold or greater)”. Also, the “ratio of IC50 against a G12D cell line to IC50 against a G12S cell line” value in the assay with A549 cells is “greater than 1”.
For the compound `N#Cc1nccn1C(=O)N1C2CCC1CN(c1nc(OC[C@@]34CCCN3C[C@H](F)C4)nc3c(F)c(-c4ccc(F)c5sc(N)nc45)c(Cl)cc13)C2` [Compound A170, 1-(3-(7-(2-amino-7-fluorobenzo[d]thiazol-4-yl)-6-chloro-8-fluoro-2-(((2R,7aS)-2-fluorotetrahydro-1H-pyrrolizin-7a(5H)-yl)methoxy)quinazolin-4-yl)-3,8-diazabicyclo[3.2. 1]octane-8-carbonyl)-1H-imidazole-2-carbonitrile], the half-inhibitory concentration (IC50) is not above 1000 nM in the assay on GP2D cells (GP2d) and 500 to 5000 nM in the assay with A549 cells (setting [3]). Also, the “Ratio of IC50 KRAS G12D vs. IC50 KRAS G12S” value on K-Ras G12S was “A (A: indicates that the ratio of IC50 against KrasG12D vs. IC50 against KrasG12S is 1-fold or greater)”.
With `Cc1ncn(C(=O)N2CC3(C2)CN(c2nc(OC[C@@]45CCCN4C[C@H](F)C5)nc4c(F)c(-c5ccc(F)c6sc(N)c(C#N)c56)c(Cl)cc24)CCO3)n1` [Compound A148, 2-amino-4-(6-chloro-8-fluoro-2-(((2R,7aS)-2-fluorotetrahydro-1H-pyrrolizin-7 a(5H)-yl)methoxy)-4-(2-(3-methyl-1H-1,2,4-triazole-1-carbonyl)-5-oxa-2,8-diazaspiro[3.5]nonan-8-yl)quinazolin-7-yl)-7-fluorobenzo[b]thiophene-3-carbonitrile], the values for the half-inhibitory concentration (IC50) in the assay on GP2D cells (GP2D cells (K-Ras G12D)) and in the assay with A549 cells (setting [1]) were 1000 to 10000 nM and not above 500 nM, respectively. Besides, the “Ratio of IC50 KRAS G12D vs. IC50 KRAS G12S” value on K-Ras G12S is “A (A: indicates that the ratio of IC50 against KrasG12D vs. IC50 against KrasG12S is 1-fold or greater)”.
Regarding `CN1CCC[C@H]1COc1nc(N2CCOC3(CN(C(=O)n4cncn4)C3)C2)c2cc(Cl)c(-c3ccc(F)c4sc(N)c(C#N)c34)c(F)c2n1` [Compound A137, 4-(4-(2-(1H-1,2,4-triazole-1-carbonyl)-5-oxa-2,8-diazaspiro[3.5]nonan-8-yl)-6-chloro-8-fluoro-2-(((S)-1-methylpyrrolidin-2-yl)methoxy)quinazolin-7-yl)-2-amino-7-fluorobenzo[b]thiophene-3-carbonitrile], the IC50 in the assay on GP2D cells (GP2D cells (K-Ras G12D)) was 1000 to 10000 nM; in the assay with A549 cells (setting [1]) it was not above 500 nM. Further, the “Ratio of IC50 KRAS G12D vs. IC50 KRAS G12S” value on K-Ras G12S is “A (A: indicates that the ratio of IC50 against KrasG12D vs. IC50 against KrasG12S is 1-fold or greater)”.
Take `N#Cc1cn(C(=O)N2C3CCC2CN(c2nc(OC[C@@]45CCCN4C[C@H](F)C5)nc4c(F)c(-c5ccc(F)c6sc(N)nc56)c(Cl)cc24)C3)cn1` [Compound A123, 1-(3-(7-(2-amino-7-fluorobenzo[d]thiazol-4-yl)-6-chloro-8-fluoro-2-(((2R,7aS)-2-fluorotetrahydro-1H-pyrrolizin-7a(5H)-yl)methoxy)quinazolin-4-yl)-3,8-diazabicyclo[3.2. 1]octane-8-carbonyl)-1H-imidazole-4-carbonitrile]: the IC50 was not above 1000 nM in the assay with GP2D cells (GP2d) and 500 to 5000 nM in the assay on A549 cells (setting [3]). At K-Ras G12S, the “Ratio of IC50 KRAS G12D vs. IC50 KRAS G12S” value is on record as “A (A: indicates that the ratio of IC50 against KrasG12D vs. IC50 against KrasG12S is 1-fold or greater)”.
As to `Nc1nc2c(-c3c(Cl)cc4c(N5CCN(C(=O)n6cncn6)CC5)nc(OC[C@@]56CCCN5C[C@H](F)C6)nc4c3F)ccc(F)c2s1` [Compound A146, (4-(7-(2-amino-7-fluorobenzo[d]thiazol-4-yl)-6-chloro-8-fluoro-2-(((2R,7aS)-2-fluorotetrahydro-1H-pyrrolizin-7a(5H)-yl)methoxy)quinazolin-4-yl)piperazin-1-yl)(1H-1,2,4-triazol-1-yl)methanone], the 50% inhibitory concentration (IC50) in the assay on GP2D cells (GP2D cells (K-Ras G12D)) was not above 1000 nM; with A549 cells (setting [2]), 500 to 5000 nM. The “Ratio of IC50 KRAS G12D vs. IC50 KRAS G12S” value on K-Ras G12S is “A (A: indicates that the ratio of IC50 against KrasG12D vs. IC50 against KrasG12S is 1-fold or greater)”.
Consider `N#Cc1c(N)sc2c(F)ccc(-c3c(Cl)cc4c(N5CCCC6(CN(C(=O)n7cncn7)C6)C5)nc(OC[C@@]56CCCN5C[C@H](F)C6)nc4c3F)c12` [Compound A129, 4-(4-(2-(1H-1,2,4-triazole-1-carbonyl)-2,6-diazaspiro[3.5]nonan-6-yl)-6-chloro-8-fluoro-2-(((2R,7aS)-2-fluorotetrahydro-1H-pyrrolizin-7a(5H)-yl)methoxy)quinazolin-7-yl)-2-amino-7-fluorobenzo[b]thiophene-3-carbonitrile], for which the IC50 was 1000 to 10000 nM in the assay with GP2D cells (GP2D cells (K-Ras G12D)) and not above 500 nM in the assay with A549 cells (setting [1]). Moreover, the “Ratio of IC50 KRAS G12D vs. IC50 KRAS G12S” value at K-Ras G12S was “A (A: indicates that the ratio of IC50 against KrasG12D vs. IC50 against KrasG12S is 1-fold or greater)”.
On to `Nc1nc2c(-c3c(Cl)cc4c(N5CCCN(C(=O)n6cncn6)CC5)nc(OC[C@@]56CCCN5C[C@H](F)C6)nc4c3F)ccc(F)c2s1` [Compound A191, (4-(7-(2-amino-7-fluorobenzo[d]thiazol-4-yl)-6-chloro-8-fluoro-2-(((2R,7aS)-2-fluorotetrahydro-1H-pyrrolizin-7a(5H)-yl)methoxy)quinazolin-4-yl)-1,4-diazepan-1-yl)(1H-1,2,4-triazol-1-yl)methanone], for which the IC50 was in the range of 1000 to 10000 nM with GP2D cells (GP2D cells (K-Ras G12D)) and 500 to 5000 nM in the assay with A549 cells (setting [2]). On K-Ras G12S, the “Ratio of IC50 KRAS G12D vs. IC50 KRAS G12S” value is “A (A: indicates that the ratio of IC50 against KrasG12D vs. IC50 against KrasG12S is 1-fold or greater)”.
For the compound `Cc1nc(C)n(C(=O)N2CC3(C2)CN(c2nc(OC[C@@]45CCCN4C[C@H](F)C5)nc4c(F)c(-c5ccc(F)c6sc(N)c(C#N)c56)c(Cl)cc24)CCO3)n1` [Compound A283, 2-amino-4-(6-chloro-4-(2-(3,5-dimethyl-1H-1,2,4-triazole-1-carbonyl)-5-oxa-2,8-diazaspiro[3.5]nonan-8-yl)-8-fluoro-2-(((2R,7aS)-2-fluorotetrahydro-1H-pyrrolizin-7a(5H)-yl)methoxy)quinazolin-7-yl)-7-fluorobenzo[b]thiophene-3-carbonitrile], the IC50 was 1000 to 10000 nM in the assay with GP2D cells (GP2D cells (K-Ras G12D)) and not above 500 nM in the assay on A549 cells (setting [1]). For the same compound, the “Ratio of IC50 KRAS G12D vs. IC50 KRAS G12S” value at K-Ras G12S was “A (A: indicates that the ratio of IC50 against KrasG12D vs. IC50 against KrasG12S is 1-fold or greater)”.
The like results for `Cc1nc(C)n(C(=O)N2CC3(COCCN(c4nc(OC[C@@]56CCCN5C[C@H](F)C6)nc5c(F)c(-c6ccc(F)c7sc(N)c(C#N)c67)c(Cl)cc45)C3)C2)n1` [Compound A185, 2-amino-4-(6-chloro-4-(2-(3,5-dimethyl-1H-1,2,4-triazole-1-carbonyl)-6-oxa-2,9-diazaspiro[3.6]decan-9-yl)-8-fluoro-2-(((2R,7aS)-2-fluorotetrahydro-1H-pyrrolizin-7a(5H)-yl)methoxy)quinazolin-7-yl)-7-fluorobenzo[b]thiophene-3-carbonitrile] were, in that order, 1000 to 10000 nM, not above 500 nM and “A (A: indicates that the ratio of IC50 against KrasG12D vs. IC50 against KrasG12S is 1-fold or greater)”.

Source of the values: patent EP4389751A1, “HETEROCYCLIC COMPOUNDS AND USES THEREOF” (Kumquat Biosciences Inc., priority 2021, dated 2024).
